Results: US12042511B1, “Inhalation delivery methods and compositions for vitamin B12” (priority 2017, dated 2024)

What was measured:
[1] = B12 blood levels after inhalation of methylcobalamin solution (vaporizer/electronic cigarette); type: in vivo, human
Experimental: A new method for vitamin B12 supplementation involves determining that a person has a disorder causing the person to have a reduced ability to process one or more forms of B-vitamins and convert them into a usable form in the body and administering methylcobalamin to the person in aerosol form or in water vapor, for inhalation. In some embodiments, the person is determined to have a MTHFR gene mutation. In some embodiments, the methylcobalamin is administered as part of a mixture also comprising vegetable glycerin and water. In some embodiments, the determined disorder includes anemia, pernicious anemia, and/or advanced age. In some embodiments, administering methylcobalamin involves administering at least 500 mcg of methylcobalamin in one day or in one week. For example, 500 mcg of methylcobalamin may be administered in a single daily or weekly dose. Depending on the concentration of the methylcobalamin in the solution used to administer the methylcobalamin, 500 mcg of methylcobalamin may be administered in 0.01 mL or more of solution. The concentration of methylcobalamin in solution for a vaporizer/electronic cigarette application in some embodiments is 1,000 mcg/mL or higher, in preferred embodiments 2,000 mcg/mL or higher. […]

[2] = bioavailability/absorption of methylcobalamin in inhalable form compared with other forms of B12; type: in vivo, human; conditions: persons with a methylenetetrahydrofolate reductase (MTHFR) genetic mutation
Experimental: When a person is determined to have MTHFR or another condition that causes the person to have a reduced ability to process B-vitamin supplements and convert them into a usable form in the body, the person may be administered methylcobalamin by inhalation for proper B12 supplementation.

C/C1=C2/[N-][C@H]([C@H](CC(N)=O)[C@@]2(C)CCC(=O)NC[C@@H](C)OP(=O)([O-])O[C@H]2[C@@H](O)[C@@H](n3cnc4cc(C)c(C)cc43)O[C@@H]2CO)[C@]2(C)N=C(/C(C)=C3N=C(/C=C4N=C1[C@@H](CCC(N)=O)C\4(C)C)[C@@H](CCC(N)=O)[C@]\3(C)CC(N)=O)[C@@H](CCC(N)=O)[C@]2(C)CC(N)=O.[CH3-].[Co+3] [methylcobalamin]
levels of B12 in a user's blood ([1]; lower concentrations (below 1,000 mcg/mL) of methylcobalamin in solution): no effect on the user's blood levels of B12
levels of B12 in a user's blood ([1]; methylcobalamin concentration in solution 1,000 mcg/mL or higher, vaporizer/electronic cigarette, immediately after treatment (within about 5 minutes) and persistently): substantially increasing levels of B12 in a user's blood
absorption relative to other forms of B12 [2]: more easily absorbed than other forms of B12
